In the assay the target is CFTR-mediated chloride transport (Homo sapiens, UniProt P13569). In words: Corrector Assay A - membrane potential dye assay (enteroid cells). To be noted: for Corrector Assay A % activity: % of chloride transport of triple combination control (1 μM (14S)-dispiro macrocycle + 3 μM tezacaftor + 300 nM ivacaftor); for EC50: read-out: Corrector Assay A EC50, human intestinal enteroid cells, 18-24 h incubation, acute 10 μM forskolin + 300 nM ivacaftor.

The term EC50 denotes the midpoint of the concentration-response curve. As to `CC(C)(C)CCOc1ccn(-c2ccc3c(n2)N2C[C@@H](CC[C@H](c4cccc(C(F)(F)F)n4)Nc4cccc(n4)S(=O)(=O)NC3=O)CC2(C)C)n1` [Compound 306, (14S,17R)-8-[3-(3,3-dimethylbutoxy)-1H-pyrazol-1-yl]-12,12-dimethyl-17-[6-(trifluoromethyl)pyridin-2-yl]-2λ^6-thia-3,9,11,18,23-pentaazatetracyclo[17.3.1.111,14.05,10]tetracosa-1(22),5,7,9,19(23),20-hexaene-2,2,4-trione], the “Corrector Assay A % activity” value is “++ (++ is 30-60%)” and the EC50 was under 1000 nM.

Take `CC(C)(C)c1ccc2c(n1)N1C[C@@H](CCC(c3cc(CCCN)ccn3)Nc3cccc(n3)S(=O)(=O)NC2=O)CC1(C)C` (single isomer, unassigned) [Compound 110]: the “Corrector Assay A % activity” value is “+ (+ is <30%)” and the EC50 was over 3000 nM.

Regarding `CC1(C)C[C@@H]2CC[C@H](c3ccccn3)Nc3cccc(n3)S(=O)(=O)NC(=O)c3ccc(C4=CCC(F)(F)CC4)nc3N1C2` [Compound 325, (14S,17R)-8-(4,4-Difluorocyclohex-1-en-1-yl)-12,12-dimethyl-17-(pyridin-2-yl)-2λ^6-thia-3,9,11,18,23-pentaazatetracyclo[17.3.1.111,14.05,10]tetracosa-1(22),5,7,9,19(23),20-hexaene-2,2,4-trione], the “Corrector Assay A % activity” value is on record as “+++ (+++ is >60%)” and the EC50 was under 1000 nM.

Regarding `CC(C)(C)c1ccc2c(n1)N1C[C@@H](CCC(c3cc(Br)ccn3)Nc3cccc(n3)S(=O)(=O)NC2=O)CC1(C)C` (single isomer, unassigned) [Compound 46], the “Corrector Assay A % activity” value is reported as “+++ (+++ is >60%)” and the EC50 is under 1000 nM.

On to `CC(C)(C)c1ccc2c(n1)N1C[C@@H](CCC(c3ccc(C4COC4)cn3)Nc3cccc(n3)S(=O)(=O)NC2=O)CC1(C)C` (stereo partly drawn) [Compound 29, (14S)-8-tert-butyl-12,12-dimethyl-17-[5-(oxetan-3-yl)pyridin-2-yl]-2λ^6-thia-3,9,11,18,23-pentaazatetracyclo[17.3.1.111,14.05,10]tetracosa-1(23),5(10),6,8,19,21-hexaene-2,2,4-trione], for which the “Corrector Assay A % activity” value was “+++ (+++ is >60%)” and the EC50 is under 1000 nM.

For the molecule `COC(=O)N1CCC(c2ccnc(C3CC[C@@H]4CN(c5nc(C(C)(C)C)ccc5C(=O)NS(=O)(=O)c5cccc(n5)N3)C(C)(C)C4)c2)CC1` (stereo partly drawn) [Compound 96, methyl 4-{2-[(14S)-8-tert-butyl-12,12-dimethyl-2,2,4-trioxo-2λ^6-thia-3,9,11,18,23-pentaazatetracyclo[17.3.1.111,14.05,10]tetracosa-1(23),5(10),6,8,19,21-hexaen-17-yl]pyridin-4-yl}piperidine-1-carboxylate], the “Corrector Assay A % activity” value is on record as “+++ (+++ is >60%)” and the half-maximal effective concentration (EC50) was under 1000 nM.

In the case of `CC(C)O[C@H]1C[C@@H](Oc2ccc3c(n2)N2C[C@@H](CC[C@@H](c4ccccn4)Nc4cccc(n4)S(=O)(=O)NC3=O)CC2(C)C)C1` [Compound 162], the “Corrector Assay A % activity” value was “++ (++ is 30-60%)” and the EC50 is under 1000 nM.

Consider `CC(C)(C)c1ccnc([C@@H]2CC[C@@H]3CN(c4nc5ccccc5cc4C(=O)NS(=O)(=O)c4cccc(n4)N2)C(C)(C)C3)c1` (single isomer, unassigned) [Compound 9], for which the “Corrector Assay A % activity” value is “+++ (+++ is >60%)” and the EC50 is under 1000 nM.

As to `CC(C)(C)c1ccc2c(n1)N1C[C@@H](CCC(c3cc(Cl)ccn3)Nc3cccc(n3)S(=O)(=O)NC2=O)CC1(C)C` (single isomer, unassigned) [Compound 128], the “Corrector Assay A % activity” value is listed as “+++ (+++ is >60%)” and the EC50 is under 1000 nM.

`CC(C)(C)c1ccc2c(n1)N1C[C@@H](CCC(c3ccc(CN)cn3)Nc3cccc(n3)S(=O)(=O)NC2=O)CC1(C)C` (stereo partly drawn) [Compound 196]: the “Corrector Assay A % activity” value is reported as “+++ (+++ is >60%)” and the EC50 is under 1000 nM.

As to `CC(=O)NCc1cccc([C@H]2CC[C@@H]3CN(c4nc(C(C)(C)C)ccc4C(=O)NS(=O)(=O)c4cccc(n4)N2)C(C)(C)C3)n1` [Compound 100, N-({6-[(14S,17R)-8-tert-Butyl-12,12-dimethyl-2,2,4-trioxo-2λ^6-thia-3,9,11,18,23-pentaazatetracyclo[17.3.1.111,14.05,10]tetracosa-1(22),5,7,9,19(23),20-hexaen-17-yl]pyridin-2-yl}methyl)acetamide], the “Corrector Assay A % activity” value was “+++ (+++ is >60%)” and the EC50 was under 1000 nM.

Take `CC1(C)CC2CCC(c3ccccn3)Nc3cccc(n3)S(=O)(=O)NC(=O)c3ccc(-n4ccc(OCCC5C6(CC6)C56CC6)n4)nc3N1C2` [Compound 356, (14S)-8-13-(2-{dispiro[2.0.2.11heptan-7-yl}ethoxy)-1H-pyrazol-1-yl]-12,12-dimethyl-17-(pyridin-2-yl)-2λ^6-thia-3,9,11,18,23-pentaazatetracyclo[17.3.1.111,14.05,10]tetracosa-1(22),5,7,9,19(23),20-hexaene-2,2,4-trione]: the “Corrector Assay A % activity” value was “+++ (+++ is >60%)” and the EC50 was under 1000 nM.

On to `CN1CCC(C2CC[C@@H]3CN(c4nc(C(C)(C)C)ccc4C(=O)NS(=O)(=O)c4cccc(n4)N2)C(C)(C)C3)CC1` (single isomer, unassigned) [Compound 240], for which the “Corrector Assay A % activity” value is reported as “+++ (+++ is >60%)” and the EC50 was in the range of 1000 to 3000 nM.

Consider `CC(C)(C)c1ccnc([C@@H]2CC[C@@H]3CN(c4nc5ccccc5cc4C(=O)NS(=O)(=O)c4cccc(n4)N2)C(C)(C)C3)c1` (single isomer, unassigned) [Compound 10], for which the “Corrector Assay A % activity” value was “++ (++ is 30-60%)” and the concentration for a half-maximal effect (EC50) was under 1000 nM.

With `COc1cccc(-c2ccc3c(n2)N2C[C@@H](CC[C@@H](c4ccccn4)Nc4cccc(n4)S(=O)(=O)NC3=O)CC2(C)C)c1` [Compound 340], the “Corrector Assay A % activity” value is listed as “++ (++ is 30-60%)” and the EC50 lay in the range of 1000 to 3000 nM.

With `C=CCC1CC[C@@H]2CN(c3nc(C(C)(C)C)ccc3C(=O)NS(=O)(=O)c3cccc(n3)N1)C(C)(C)C2` (single isomer, unassigned) [Compound 35], the “Corrector Assay A % activity” value is “++ (++ is 30-60%)” and the EC50 is under 1000 nM.

`CC(C)(C)c1ccc(C2CC[C@@H]3CN(c4nc(C(C)(C)C)ccc4C(=O)NS(=O)(=O)c4cccc(n4)N2)C(C)(C)C3)nc1` (single isomer, unassigned) [Compound 186]: the “Corrector Assay A % activity” value is “+++ (+++ is >60%)” and the EC50 was under 1000 nM.

As to `CC(C)(C)c1ccc2c(n1)N1C[C@@H](CCC3CCCC(=O)N3c3cccc(n3)S(=O)(=O)NC2=O)CC1(C)C` (stereo partly drawn) [Compound 14, (10S)-16-tert-Butyl-12,12-dimethyl-22λ^6-thia-2,13,15,21,27-pentaazapentacyclo[21.3.1.110,13.02,7.014,19]octacosa-1(26),14(19),15,17,23(27),24-hexaene-3,20,22,22-tetrone], the “Corrector Assay A % activity” value is listed as “++ (++ is 30-60%)” and the EC50 was under 1000 nM.
